The results in this text go back to patent publication US12139492B2 (Endotarget Inc., priority 2021, dated 2024).

The structures appear in SMILES notation. Like-named read-outs stand apart in the source and are kept apart here.

Test [1] concerns Mino cells. Nature of the test: Antiproliferative effect, MTS cell viability assay, Mino cells. Format: cell-based. To be noted: Homo sapiens, MINO, Mino mantle cell lymphoma cells; read-out: IC50 (anti-proliferation) Mino cells. The method in brief: (§1)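 Absorbance at 490 nm of formazan, formed by metabolically active cells from MTS tetrazolium, served as the viability measure after a 72 h treatment across a 0.001–10 μM concentration series plus untreated control.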
(In general: Formazan colour is commonly taken as a measure of viable cells.)

Test [2] has as its system JeKo-1 cells. Briefly: Antiproliferative effect, MTS cell viability assay, JeKo-1 cells. Format: cell-based. The conditions noted are these: Homo sapiens; JeKo-1 mantle cell lymphoma cells; read-out: IC50 (anti-proliferation) JeKO-1 cells. The method, boiled down:
as §1

For test [3], the target named is BTK (Homo sapiens, UniProt Q06187). Nature of the test: Degradation of BTK protein in Namalwa cells (Western blot; DC50, Dmax). The conditions noted are these: for DC50: cell line not given.
BTK, sequence (Q06187 whole entry): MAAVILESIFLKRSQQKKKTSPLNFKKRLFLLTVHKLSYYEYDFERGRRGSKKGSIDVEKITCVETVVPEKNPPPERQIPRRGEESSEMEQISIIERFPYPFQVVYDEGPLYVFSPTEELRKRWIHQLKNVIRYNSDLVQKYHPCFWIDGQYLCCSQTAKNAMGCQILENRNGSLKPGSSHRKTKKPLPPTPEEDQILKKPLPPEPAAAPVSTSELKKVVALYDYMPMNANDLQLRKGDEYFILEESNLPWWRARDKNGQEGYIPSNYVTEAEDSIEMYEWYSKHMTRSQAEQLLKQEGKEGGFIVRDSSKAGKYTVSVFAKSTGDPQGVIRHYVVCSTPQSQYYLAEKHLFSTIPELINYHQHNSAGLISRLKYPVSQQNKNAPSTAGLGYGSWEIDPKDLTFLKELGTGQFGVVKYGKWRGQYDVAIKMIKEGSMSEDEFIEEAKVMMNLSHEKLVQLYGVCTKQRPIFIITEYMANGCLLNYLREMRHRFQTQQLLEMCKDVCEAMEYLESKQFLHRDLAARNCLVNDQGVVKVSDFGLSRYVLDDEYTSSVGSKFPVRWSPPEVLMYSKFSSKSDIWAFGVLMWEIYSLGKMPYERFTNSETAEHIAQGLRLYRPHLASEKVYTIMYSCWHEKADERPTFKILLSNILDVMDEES
The mark [4] stands for this setting: read-out: DC50 (BTK degradation), concentration giving 50% reduction of BTK expression level.
Setting [5] is: read-out: Dmax (BTK degradation).

One may read the Dmax as the largest share of the target that was removed. As usually defined, the DC50 is the midpoint of the concentration-degradation curve.

For the molecule `Nc1ncnc2c1c(-c1ccc(Oc3ccccc3)cc1)nn2C1CCN(C2CCN(CCN3CCC(c4ccc5c(c4)C(=O)N(C4CCC(=O)NC4=O)C5=O)CC3)CC2)CC1` (stereo not drawn) [Compound 219, 5-(1-(2-(4-(4-amino-3-(4-phenoxyphenyl)-1H-pyrazolo[3,4-d]pyrimidin-1-yl)-[1,4′-bipiperidin]-1′-yl)ethyl)piperidin-4-yl)-2-(2,6-dioxopiperidin-3-yl)isoindoline-1,3-dione], the IC50 in test [1] and in test [2] was 1000 to 10000 nM each time. This molecule also registered a Dmax in test [3] of over 50%. The DC50 in test [3] (BTK degradation) lay within 10 to 50 nM.
As to `NC(=O)c1c(-c2ccc(Oc3ccccc3)cc2)nn2c1NCC[C@H]2C1CCN(CC2CCN(CCN3CCN(c4ccc5c(c4)CN(C4CCC(=O)NC4=O)C5=O)CC3)CC2)CC1` (stereo partly drawn) [Compound 332, (7S)-7-(1-((1-(2-(4-(2-(2,6-dioxopiperidin-3-yl)-1-oxoisoindolin-5-yl)piperazin-1-yl)ethyl)piperidin-4-yl)methyl)piperidin-4-yl)-2-(4-phenoxyphenyl)-4,5,6,7-tetrahydropyrazolo[1,5-a]pyrimidine-3-carboxamide], the IC50 in test [1] and in test [2] was 1000 to 10000 nM each time. Further, the Dmax in test [3] was over 75%. In test [3] (BTK degradation), this molecule displayed a DC50 of over 50 nM.
Consider `Nc1ncnc2c1c(-c1ccc(Oc3ccccc3)cc1)nn2[C@@H]1CCCN(C2CCN(C(=O)N3CC(N4CCN(c5ccc6c(c5)C(=O)N(C5CCC(=O)NC5=O)C6=O)CC4)C3)CC2)C1` (stereo partly drawn) [Compound 475, 5-(4-(1-((R)-3-(4-amino-3-(4-phenoxyphenyl)-1H-pyrazolo[3,4-d]pyrimidin-1-yl)-[1,4′-bipiperidine]-1′-carbonyl)azetidin-3-yl)piperazin-1-yl)-2-(2,6-dioxopiperidin-3-yl)isoindoline-1,3-dione], for which the values for the IC50 in test [1] and in test [2] were under 1000 nM and 1000 to 10000 nM, respectively. In test [3] (setting [4]), the half-maximal degradation concentration (DC50) is under 10 nM. For the same molecule, the Dmax in test [3] (setting [5]) is over 90%.
For `Nc1ncnc2c1c(-c1ccc(Oc3ccccc3)cc1)nn2C1CCN(C2CCN(CCN3CCN(c4ccc5c(c4)C(=O)N(C4CCC(=O)NC4=O)C5=O)CC3)CC2)CC1` (stereo not drawn) [Compound 217, 5-(4-(2-(4-(4-amino-3-(4-phenoxyphenyl)-1H-pyrazolo[3,4-d]pyrimidin-1-yl)-[1,4′-bipiperidin]-1′-yl)ethyl)piperazin-1-yl)-2-(2,6-dioxopiperidin-3-yl)isoindoline-1,3-dione], the IC50 was 1000 to 10000 nM in test [1] and under 1000 nM in test [2]. The molecule further showed a Dmax in test [3] of over 75%. Also, in test [3] (BTK degradation), the DC50 is 10 to 50 nM.
On to `Nc1ncnc2c1c(-c1ccc(Oc3ccccc3)cc1)nn2C1CCN(C2CCN(CC3CCN(c4ccc(NC5CCC(=O)NC5=O)cc4)CC3)CC2)CC1` (stereo not drawn) [Compound 578, 3-((4-(4-((4-(4-amino-3-(4-phenoxyphenyl)-1H-pyrazolo[3,4-d]pyrimidin-1-yl)-[1,4′-bipiperidin]-1′-yl)methyl)piperidin-1-yl)phenyl)amino)piperidine-2,6-dione], for which the IC50 in test [1] and in test [2] was 1000 to 10000 nM throughout. Besides, the DC50 in test [3] (setting [4]) is 10 to 50 nM. Moreover, in test [3] (setting [5]), the Dmax was over 90%.
Consider `Nc1ncnc2c1c(-c1ccc(Oc3ccccc3)cc1)nn2C1CCN(C2CCN(C(=O)N3CCN(c4ccc5c(c4)CN(C4CCC(=O)NC4=O)C5=O)CC3)CC2)CC1` (stereo not drawn) [Compound 230, 3-(5-(4-(4-(4-amino-3-(4-phenoxyphenyl)-1H-pyrazolo[3,4-d]pyrimidin-1-yl)-[1,4′-bipiperidine]-1′-carbonyl)piperazin-1-yl)-1-oxoisoindolin-2-yl)piperidine-2,6-dione], for which the IC50 in test [1] and in test [2] was 1000 to 10000 nM throughout. The molecule further showed a Dmax in test [3] of over 50%. The molecule also returned a DC50 in test [3] (BTK degradation) of over 50 nM.
Take `NC(=O)c1c(-c2ccc(Oc3ccccc3)cc2)nn2c1NCC[C@H]2C1CCN(C(=O)N2CCC(CN3CCC(c4ccc5c(c4)CN(C4CCC(=O)NC4=O)C5=O)CC3)CC2)CC1` (stereo partly drawn) [Compound 296, (7S)-7-(1-(4-((4-(2-(2,6-dioxopiperidin-3-yl)-1-oxoisoindolin-5-yl)piperidin-1-yl)methyl)piperidine-1-carbonyl)piperidin-4-yl)-2-(4-phenoxyphenyl)-4,5,6,7-tetrahydropyrazolo[1,5-a]pyrimidine-3-carboxamide]: the IC50 in test [1] is under 1000 nM; in test [2] it was 1000 to 10000 nM. The molecule also had a Dmax in test [3] of over 90%. The molecule also yielded a 50% degradation concentration (DC50) in test [3] (BTK degradation) of under 10 nM.
For `Nc1ncnc2c1c(-c1ccc(Oc3ccccc3)cc1)nn2C1CCN(C(=O)C2CN(C3CCN(c4ccc5c(c4)C(=O)N(C4CCC(=O)NC4=O)C5=O)CC3)C2)CC1` (stereo not drawn) [Compound 509, 5-(4-(3-(4-(4-amino-3-(4-phenoxyphenyl)-1H-pyrazolo[3,4-d]pyrimidin-1-yl)piperidine-1-carbonyl)azetidin-1-yl)piperidin-1-yl)-2-(2,6-dioxopiperidin-3-yl)isoindoline-1,3-dione], the IC50 in test [1] and in test [2] was under 1000 nM throughout. The DC50 in test [3] (setting [4]) is under 10 nM. The Dmax in test [3] (setting [5]) was over 90%.
Regarding `NC(=O)c1c(-c2ccc(Oc3ccccc3)cc2)nn2c1NCC[C@H]2C1CCN(C2CCN(CCN3CCC(c4ccc5c(c4)C(=O)N(C4CCC(=O)NC4=O)C5=O)CC3)CC2)CC1` (stereo partly drawn) [Compound 327, (7S)-7-(1′-(2-(4-(2-(2,6-dioxopiperidin-3-yl)-1,3-dioxoisoindolin-5-yl)piperidin-1-yl)ethyl)-[1,4′-bipiperidin]-4-yl)-2-(4-phenoxyphenyl)-4,5,6,7-tetrahydropyrazolo[1,5-a]pyrimidine-3-carboxamide], the IC50 was 1000 to 10000 nM in test [1] and over 10000 nM in test [2]. Also, the Dmax in test [3] is over 75%. Besides, the DC50 in test [3] (BTK degradation) lay in the range of 10 to 50 nM.
On the same counts, the results for `NC(=O)c1c(-c2ccc(Oc3ccccc3)cc2)nn2c1NCC[C@H]2C1CCN(CC2CCN(CCC3CCN(c4ccc5c(c4)CN(C4CCC(=O)NC4=O)C5=O)CC3)CC2)CC1` (stereo partly drawn) [Compound 334, (7S)-7-(1-((1-(2-(1-(2-(2,6-dioxopiperidin-3-yl)-1-oxoisoindolin-5-yl)piperidin-4-yl)ethyl)piperidin-4-yl)methyl)piperidin-4-yl)-2-(4-phenoxyphenyl)-4,5,6,7-tetrahydropyrazolo[1,5-a]pyrimidine-3-carboxamide] are over 10000 nM, over 10000 nM, over 75% and 10 to 50 nM.
As to `Nc1ncnc2c1c(-c1ccc(Oc3ccccc3)cc1)nn2C1CCN(C[C@H]2CCN(C[C@H]3CCN(c4ccc5c(c4)C(=O)N(C4CCC(=O)NC4=O)C5=O)C3)C2)CC1` (stereo partly drawn) [Compound 447a, 5-((R)-3-(((R)-3-((4-(4-amino-3-(4-phenoxyphenyl)-1H-pyrazolo[3,4-d]pyrimidin-1-yl)piperidin-1-yl)methyl)pyrrolidin-1-yl)methyl)pyrrolidin-1-yl)-2-(2,6-dioxopiperidin-3-yl)isoindoline-1,3-dione], the IC50 in test [1] and in test [2] was 1000 to 10000 nM throughout. Moreover, the 50% degradation concentration (DC50) in test [3] (setting [4]) was 10 to 50 nM. Besides, the Dmax in test [3] (setting [5]) is over 90%.
Turning to `Nc1ncnc2c1c(-c1ccc(Oc3ccccc3)cc1)nn2C1CCN(CCN2CCC(CSc3ccc4c(c3)C(=O)N(C3CCC(=O)NC3=O)C4=O)C2)CC1` (stereo not drawn) [Compound 473, 5-(((1-(2-(4-(4-amino-3-(4-phenoxyphenyl)-1H-pyrazolo[3,4-d]pyrimidin-1-yl)piperidin-1-yl)ethyl)pyrrolidin-3-yl)methyl)thio)-2-(2,6-dioxopiperidin-3-yl)isoindoline-1,3-dione], the IC50 in test [1] and in test [2] was 1000 to 10000 nM in each case. For the same molecule, the 50% degradation concentration (DC50) in test [3] (setting [4]) lay within 10 to 50 nM. For the same molecule, in test [3] (setting [5]), the Dmax was over 90%.
